From ChEMBL document CHEMBL1150320, “Novel ORL1-selective antagonists with oral bioavailability and brain penetrability” (Bioorg Med Chem Lett, 2008)
Each block holds one compound with its values, some of them ahead of it.

Assays:
[1] = Metabolic stability in human liver microsomes assessed as drug remaining after 30 mins; format: ADME, Microsome; conditions: read-out: Stability
[2] = molecular target: T1, Delta-type opioid receptor (Homo sapiens, UniProt P41143); experiment: Displacement of [3H]naltrindole from human delta opioid receptor expressed in CHO cell membrane; format: cell membranes
T1 sequence (P41143 whole entry): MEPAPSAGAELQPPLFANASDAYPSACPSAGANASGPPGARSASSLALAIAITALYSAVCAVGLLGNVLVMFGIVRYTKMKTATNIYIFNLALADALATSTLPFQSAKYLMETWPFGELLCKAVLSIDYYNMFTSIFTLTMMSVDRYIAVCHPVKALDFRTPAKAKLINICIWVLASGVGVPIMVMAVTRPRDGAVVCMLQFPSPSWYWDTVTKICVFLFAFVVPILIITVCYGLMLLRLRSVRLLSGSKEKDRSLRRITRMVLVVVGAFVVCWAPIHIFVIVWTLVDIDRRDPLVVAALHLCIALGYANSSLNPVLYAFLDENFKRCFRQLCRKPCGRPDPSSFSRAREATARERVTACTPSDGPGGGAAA

Nociceptin receptor [3] = molecular target: T2, Nociceptin receptor (Homo sapiens, UniProt P41146); experiment: Displacement of [125I]Tyr14-NC/OFQ from human ORL1 receptor
T2 sequence (P41146 whole entry): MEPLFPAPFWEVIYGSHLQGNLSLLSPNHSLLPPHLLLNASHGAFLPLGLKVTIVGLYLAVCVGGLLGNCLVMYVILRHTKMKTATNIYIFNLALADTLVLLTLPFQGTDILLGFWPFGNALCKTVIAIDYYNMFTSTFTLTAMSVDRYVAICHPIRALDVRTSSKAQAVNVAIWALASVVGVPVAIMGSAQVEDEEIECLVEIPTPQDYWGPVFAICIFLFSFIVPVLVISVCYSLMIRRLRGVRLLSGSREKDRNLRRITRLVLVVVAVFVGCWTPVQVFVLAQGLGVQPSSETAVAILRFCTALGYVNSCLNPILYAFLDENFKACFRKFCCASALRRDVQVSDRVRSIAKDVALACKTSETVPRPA

Nociceptin receptor [4] = molecular target: T2, Nociceptin receptor; experiment: Antagonist activity at human ORL1 receptor by [35S]GTPgammaS binding assay; format: functional
Mu-type opioid receptor [5] = molecular target: T3, Mu-type opioid receptor (Homo sapiens, UniProt P35372); experiment: Agonist activity at human mu opioid receptor expressed in CHO cell membrane by [35S]GTPgammaS binding assay; format: functional, cell membranes
T3 sequence (P35372 whole entry): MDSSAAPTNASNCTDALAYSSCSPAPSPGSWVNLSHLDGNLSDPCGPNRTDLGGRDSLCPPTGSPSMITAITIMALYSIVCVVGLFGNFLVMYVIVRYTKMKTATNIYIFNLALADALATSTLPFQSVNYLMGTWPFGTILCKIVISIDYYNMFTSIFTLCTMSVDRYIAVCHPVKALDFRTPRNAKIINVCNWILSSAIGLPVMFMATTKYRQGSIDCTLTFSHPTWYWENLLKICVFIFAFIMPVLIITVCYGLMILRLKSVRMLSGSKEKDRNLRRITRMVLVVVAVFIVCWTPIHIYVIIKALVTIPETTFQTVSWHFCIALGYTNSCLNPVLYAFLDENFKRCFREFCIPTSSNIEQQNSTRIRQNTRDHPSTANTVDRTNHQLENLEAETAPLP

Mu-type opioid receptor [6] = molecular target: T3, Mu-type opioid receptor; experiment: Displacement of [3H]diprenorphin from human mu opioid receptor expressed in CHO cell membrane; format: cell membranes
[7] = molecular target: T1, Delta-type opioid receptor; experiment: Agonist activity at human delta opioid receptor expressed in CHO cell membrane by [35S]GTPgammaS binding assay; format: functional, cell membranes
[8] = molecular target: T4, Kappa-type opioid receptor (Homo sapiens, UniProt P41145); experiment: Displacement of [3H]U-69593 from human kappa opioid receptor expressed in CHO cell membrane; format: cell membranes
T4 sequence (P41145 whole entry): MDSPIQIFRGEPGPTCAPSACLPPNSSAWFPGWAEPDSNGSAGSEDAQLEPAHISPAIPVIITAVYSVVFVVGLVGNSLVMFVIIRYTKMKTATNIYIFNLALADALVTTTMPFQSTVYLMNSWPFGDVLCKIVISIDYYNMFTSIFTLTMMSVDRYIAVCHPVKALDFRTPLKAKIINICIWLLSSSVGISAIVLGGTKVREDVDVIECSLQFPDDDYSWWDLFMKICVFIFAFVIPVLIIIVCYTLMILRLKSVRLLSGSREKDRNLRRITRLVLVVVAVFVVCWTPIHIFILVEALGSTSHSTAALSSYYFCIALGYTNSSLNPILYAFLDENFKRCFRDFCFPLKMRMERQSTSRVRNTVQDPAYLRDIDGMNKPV

[9] = molecular target: T4, Kappa-type opioid receptor; experiment: Agonist activity at human kappa opioid receptor expressed in CHO cell membrane by [35S]GTPgammaS binding assay
[10] = molecular target: 5-hydroxytryptamine receptor 2B (Homo sapiens) (UniProt P41595); experiment: Inhibition of 5HT2B receptor at 10 uM
Sequence of 5-hydroxytryptamine receptor 2B (Homo sapiens) (P41595 whole entry): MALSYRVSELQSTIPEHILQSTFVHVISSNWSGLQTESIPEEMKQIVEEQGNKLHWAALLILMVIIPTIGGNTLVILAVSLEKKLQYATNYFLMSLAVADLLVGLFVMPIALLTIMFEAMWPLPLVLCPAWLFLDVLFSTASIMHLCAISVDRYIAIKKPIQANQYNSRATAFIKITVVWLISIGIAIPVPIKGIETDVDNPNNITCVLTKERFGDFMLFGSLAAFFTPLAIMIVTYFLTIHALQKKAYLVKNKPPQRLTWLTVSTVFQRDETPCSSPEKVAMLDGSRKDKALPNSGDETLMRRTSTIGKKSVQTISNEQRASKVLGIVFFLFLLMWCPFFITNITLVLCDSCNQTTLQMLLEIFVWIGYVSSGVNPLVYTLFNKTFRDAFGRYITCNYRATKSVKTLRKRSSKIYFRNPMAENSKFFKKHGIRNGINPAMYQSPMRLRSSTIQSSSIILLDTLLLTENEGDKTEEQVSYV

[11] = molecular target: Synaptic vesicular amine transporter (Homo sapiens) (UniProt Q05940); experiment: Inhibition of monoamine transporter at 10 uM
Sequence of Synaptic vesicular amine transporter (Homo sapiens) (Q05940 whole entry): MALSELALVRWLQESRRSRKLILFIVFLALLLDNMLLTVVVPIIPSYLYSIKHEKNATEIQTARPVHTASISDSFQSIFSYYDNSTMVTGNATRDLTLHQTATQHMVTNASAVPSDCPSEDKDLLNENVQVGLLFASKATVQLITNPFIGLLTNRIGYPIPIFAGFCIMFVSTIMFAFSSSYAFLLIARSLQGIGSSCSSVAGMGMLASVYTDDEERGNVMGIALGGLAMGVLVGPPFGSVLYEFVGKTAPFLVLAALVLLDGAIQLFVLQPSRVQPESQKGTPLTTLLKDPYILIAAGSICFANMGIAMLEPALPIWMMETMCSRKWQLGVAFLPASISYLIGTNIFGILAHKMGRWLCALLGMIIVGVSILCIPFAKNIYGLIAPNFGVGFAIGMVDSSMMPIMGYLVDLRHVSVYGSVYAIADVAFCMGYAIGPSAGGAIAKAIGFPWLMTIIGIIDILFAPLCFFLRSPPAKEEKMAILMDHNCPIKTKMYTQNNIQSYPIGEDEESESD

[12] = Clearance in rhesus monkey at 3 mg/kg, po and 1 mg/kg, iv; format: ADME, organism-based, Macaca mulatta; conditions: in vivo
[13] = Inhibition of sodium channel site 2 at 10 uM
[14] = Clearance in ICR mouse at 3 mg/kg, po and 1 mg/kg, iv; format: ADME, organism-based; conditions: in vivo
[15] = Bioavailability in rhesus monkey at 3 mg/kg, po and 1 mg/kg, iv; format: ADME, organism-based, Macaca mulatta; conditions: in vivo
[16] = Half life in rhesus monkey at 3 mg/kg, po and 1 mg/kg, iv; format: ADME, organism-based, Macaca mulatta; conditions: in vivo
[17] = Ratio of drug level in brain to plasma in ICR mouse at 30 mg/kg, po after 60 mins; format: ADME, organism-based; design: dose 30 mg/kg, route oral; conditions: read-out: BPR
[18] = Bioavailability in ICR mouse at 3 mg/kg, po and 1 mg/kg, iv; format: ADME, organism-based; conditions: in vivo
[19] = Bioavailability in Sprague-Dawley rat at 3 mg/kg, po and 1 mg/kg, iv; format: ADME, organism-based; conditions: in vivo
[20] = Biodistribution in ICR mouse plasma at 30 mg/kg, po after 60 mins; format: ADME, organism-based; design: dose 30 mg/kg, route oral; conditions: read-out: Drug uptake
Mus musculus = experiment: Biodistribution in ICR mouse brain at 30 mg/kg, po after 60 mins; format: ADME, organism-based; design: dose 30 mg/kg, route oral; conditions: in vivo, 1 h
[21] = Clearance in Sprague-Dawley rat at 3 mg/kg, po and 1 mg/kg, iv; format: ADME, organism-based; conditions: in vivo
[22] = Half life in ICR mouse at 3 mg/kg, po and 1 mg/kg, iv; format: ADME, organism-based; conditions: in vivo
hERG (KCNH2) = hERG (KCNH2) (Homo sapiens, UniProt Q12809); experiment: Inhibition of human ERG at 10 uM
Sequence of hERG (KCNH2) (Q12809 whole entry): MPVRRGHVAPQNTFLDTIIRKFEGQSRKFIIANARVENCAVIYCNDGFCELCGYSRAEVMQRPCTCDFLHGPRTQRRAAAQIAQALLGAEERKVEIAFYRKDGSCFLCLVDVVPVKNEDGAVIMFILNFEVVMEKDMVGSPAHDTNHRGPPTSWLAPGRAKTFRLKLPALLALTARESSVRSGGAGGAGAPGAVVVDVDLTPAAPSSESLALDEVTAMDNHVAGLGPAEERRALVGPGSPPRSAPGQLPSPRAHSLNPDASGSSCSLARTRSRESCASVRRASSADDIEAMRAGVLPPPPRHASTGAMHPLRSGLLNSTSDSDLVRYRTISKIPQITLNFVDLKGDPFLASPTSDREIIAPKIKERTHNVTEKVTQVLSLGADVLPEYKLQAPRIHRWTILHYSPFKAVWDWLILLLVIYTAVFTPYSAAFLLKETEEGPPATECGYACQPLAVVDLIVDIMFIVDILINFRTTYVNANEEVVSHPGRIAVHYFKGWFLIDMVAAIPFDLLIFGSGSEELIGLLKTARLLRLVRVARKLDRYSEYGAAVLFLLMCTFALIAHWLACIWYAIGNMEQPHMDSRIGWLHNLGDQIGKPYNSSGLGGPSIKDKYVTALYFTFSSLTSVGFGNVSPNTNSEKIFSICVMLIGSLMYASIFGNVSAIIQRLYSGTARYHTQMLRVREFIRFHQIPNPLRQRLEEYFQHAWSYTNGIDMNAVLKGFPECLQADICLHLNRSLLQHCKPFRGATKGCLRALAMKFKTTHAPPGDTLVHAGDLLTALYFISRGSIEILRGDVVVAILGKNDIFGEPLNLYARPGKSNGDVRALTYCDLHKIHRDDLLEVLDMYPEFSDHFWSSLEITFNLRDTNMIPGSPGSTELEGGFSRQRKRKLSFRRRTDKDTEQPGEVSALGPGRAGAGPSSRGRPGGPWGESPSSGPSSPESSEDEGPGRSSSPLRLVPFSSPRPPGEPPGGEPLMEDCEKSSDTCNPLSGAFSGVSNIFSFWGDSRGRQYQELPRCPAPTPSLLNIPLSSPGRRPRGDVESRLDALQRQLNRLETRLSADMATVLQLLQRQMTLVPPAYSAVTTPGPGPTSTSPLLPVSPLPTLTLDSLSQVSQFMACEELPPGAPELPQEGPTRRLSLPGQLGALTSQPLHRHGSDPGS

[23] = Half life in Sprague-Dawley rat at 3 mg/kg, po and 1 mg/kg, iv; format: ADME, organism-based; conditions: in vivo

remaining at 0.5 h [1]: 71%
IC50 [2]: > 1000 nM
SMILES: CC(C)(C)Sc1nc2cc(Cl)c(N3CCN(CCO)CC3)cc2[nH]1

remaining at 0.5 h [1]: 36%
SMILES: CCC(C)(CC)Sc1nc2cc(Cl)c(N3CCN(CCO)CC3)cc2[nH]1

Second part, the compound before the results:

SMILES: CCC(CC)Sc1nc2cc(Cl)c(N3CCN(CCO)C(C)(C)C3)cc2[nH]1
IC50 (Nociceptin receptor [3]): 73 nM
IC50 (Nociceptin receptor [4]): 59 nM
remaining at 0.5 h [1]: 7%

SMILES: CCC(CC)Sc1nc2cc(Cl)c(N3C[C@@H]4C[C@H]3CN4CCO)cc2[nH]1
IC50 (Nociceptin receptor [3]): 18 nM
IC50 (Nociceptin receptor [4]): 27 nM
remaining at 0.5 h [1]: 63%

SMILES: C[C@H]1CN(CCO)CCN1c1cc2[nH]c(SC(C)(C)C)nc2cc1Cl
IC50 (Nociceptin receptor [3]): 1.1 nM
IC50 (Nociceptin receptor [4]): 2.2 nM
IC50 (Mu-type opioid receptor [5]): 25 nM
remaining at 0.5 h [1]: 70%
IC50 [2]: 238 nM
IC50 (Mu-type opioid receptor [6]): 67 nM
EC50 [7]: 14 nM
Emax [7]: 94%
IC50 [8]: 5.3 nM
EC50 [9]: 18 nM

SMILES: C[C@@H]1CN(CCO)CCN1c1cc2[nH]c(SC(C)(C)C)nc2cc1Cl
inhibition [10]: 52%
inhibition [11]: 52%
clearance [12]: 20 mL/min/kg
inhibition [13]: 68%
IC50 (Nociceptin receptor [3]): 2.6 nM
IC50 (Nociceptin receptor [4]): 0.65 nM
IC50 (Mu-type opioid receptor [5]): 97 nM
remaining at 0.5 h [1]: 87%
clearance [14]: 121 mL/min/kg
bioavailability [15]: 37%
half-life [16]: 186 min
IC50 [2]: > 1000 nM
Kp at 1 h [17]: 0.47
IC50 (Mu-type opioid receptor [6]): 1900 nM
IC50 [7]: 1200 nM
IC50 [8]: 120 nM
IC50 [9]: 180 nM
bioavailability [18]: 33%
bioavailability [19]: 29%
concentration at 1 h [20]: 2380 nM
Drug uptake (Mus musculus): 1.04 µmol/kg
clearance [21]: 81 mL/min/kg
half-life [22]: 48.6 min
inhibition at 10 µM (hERG (KCNH2)): 86%
half-life [23]: 55.2 min

SMILES: CCC(CC)Sc1nc2cc(Cl)c(N3CCN(CCO)C(C)C3)cc2[nH]1 (racemic)
IC50 (Nociceptin receptor [3]): 8 nM
IC50 (Nociceptin receptor [4]): 22 nM
remaining at 0.5 h [1]: 17%
